Tests used:
[1] = system: pAKT in MCF7 (measure of mTORC2 activity); assay: AlphaLISA Ultra pAKT assay; type: cell-based; settings: Homo sapiens, MCF7, 2 h, MCF-7 cells, 2 hours compound incubation
Description: (§1) Assay Protocol: • 1. […] 16,000˜20,000 cells will be seeded in 36 μL medium per well. • 2. Change the culture medium with fresh medium and incubate for another 2 hours. • 3. Add 12 μL (4×) compounds into the cell plate by HAMILTON. Final DMSO concentration is 0.5%. Incubate for 2 hours. • 4. Aspirate 38 μL by HAMILTON, 10 μL rest per well. • 5. Add 10 μL 2× lysis buffer using HAMILTON; total volume in wells is 20 μL. Allow cells to shake for 30 min. Cover plate by plastic foil and store plate at −80° C. up to analysis. • 6. […] Add 5 ul acceptor beads into assay plate and incubation for 2 hours • 8. Add 5 ul donor beads and incubation for 2 hours • 9. Count the plate by EnSpire Multimode Plate Reader

[2] = system: pS6K1 in MCF7 (measure of mTORC1 activity); assay: AlphaLISA Ultra pS6K1 assay; type: cell-based; settings: Homo sapiens, MCF7, 2 h, MCF-7 cells, 2 hours compound incubation
Description: as §1, with “12,000˜16,000” for “16,000˜20,000”, “(4λ)” for “(4×)”

Row | SMILES | IC50 [1] [µM] | IC50 [2] [µM]
1 | C[C@H]1CN(c2cc(F)c(F)c(F)c2)CCN1C(=O)c1cc(CN2CCN(c3ccccc3Cl)CC2)cn1C [Example I-88, (S)-(4-((4-(2-chlorophenyl)piperazin-1-yl)methyl)-1-methyl-1H-pyrrol-2-yl)(2-methyl-4-(3,4,5-trifluorophenyl)piperazin-1-yl)methanone] | > 10 | 1 to 3
2 | Cc1c(CN2CCN(c3ccccc3Cl)CC2)cc(C(=O)N2CCN(c3cc(F)c(F)c(F)c3)C[C@@H]2C)n1C [Example I-89, (S)-(4-((4-(2-Chlorophenyl)piperazin-1-yl)methyl)-1,5-dimethyl-1H-pyrrol-2-yl)(2-methyl-4-(3,4,5-trifluorophenyl)piperazin-1-yl)methanone] | > 10 | 3 to 10
3 | Cc1c(CN2CCN(c3ncccc3Cl)CC2)cc(C(=O)N2CCN(c3cccc(Cl)c3)C[C@@H]2C)n1C [Example I-90, (S)-(4-(3-chlorophenyl)-2-methylpiperazin-1-yl)(4-((4-(3-chloropyridin-2-yl)piperazin-1-yl)methyl)-1,5-dimethyl-1H-pyrrol-2-yl)methanone] | > 3 | 1 to 3
4 | Cc1c(CN2CCN(c3ccccc3Cl)CC2)cc(C(=O)N2CCn3c(nc4ccccc43)C2)n1C [Example I-91, (4-((4-(2-chlorophenyl)piperazin-1-yl)methyl)-1,5-dimethyl-1H-pyrrol-2-yl)(3,4-dihydrobenzo[4,5]imidazo[1,2-a]pyrazin-2(1H)-yl)methanone] | > 5 | 0.01 to 1
5 | Cc1c(CN2CCN(c3ncccc3Cl)CC2)cc(C(=O)N2CCN(c3ccc(F)cc3)C[C@@H]2C)n1C [Example I-92, (S)-(4-((4-(3-chloropyridin-2-yl)piperazin-1-yl)methyl)-1,5-dimethyl-1H-pyrrol-2-yl)(4-(4-fluorophenyl)-2-methylpiperazin-1-yl)methanone] | > 1 | 0.01 to 1
6 | Cc1c(CN2CCN(c3ccccc3Cl)CC2)cc(C(=O)N2CCN(c3cc(F)cc(F)c3)C[C@@H]2C)n1C [Example I-93, (S)-(4-((4-(2-chlorophenyl)piperazin-1-yl)methyl)-1,5-dimethyl-1H-pyrrol-2-yl)(4-(3,5-difluorophenyl)-2-methylpiperazin-1-yl)methanone] | > 5 | 0.01 to 1
7 | C[C@H]1CN(c2cc(F)cc(F)c2)CCN1C(=O)c1cc(CN2CCN(c3ccccc3Cl)CC2)cn1C [Example I-94, (S)-(4-((4-(2-chlorophenyl)piperazin-1-yl)methyl)-1-methyl-1H-pyrrol-2-yl)(4-(3,5-difluorophenyl)-2-methylpiperazin-1-yl)methanone] | > 5 | 0.01 to 1
8 | Cc1c(CN2CCN(c3ccccc3Cl)CC2)cc(C(=O)N2CCN(c3ccc(F)cc3)C[C@@H]2C)n1C [Example I-95, (S)-(4-((4-(2-chlorophenyl)piperazin-1-yl)methyl)-1,5-dimethyl-1H-pyrrol-2-yl)(4-(4-fluorophenyl)-2-methylpiperazin-1-yl)methanone] | > 3 | 0.01 to 1
9 | Cc1c(CN2CCN(c3ccccc3Cl)CC2)cc(C(=O)N2CCN(c3cc(F)cc(F)c3)CC2)n1C [Example I-96, (4-((4-(2-chlorophenyl)piperazin-1-yl)methyl)-1,5-dimethyl-1H-pyrrol-2-yl)(4-(3,5-difluorophenyl)piperazin-1-yl)methanone] | > 3 | 0.01 to 1
10 | Cc1c(CN2CCN(c3ccccc3N=[N+]=[N-])CC2)cc(C(=O)N2CCN(c3ccccc3)CC2)n1C [Example I-97, (4-((4-(2-azidophenyl)piperazin-1-yl)methyl)-1,5-dimethyl-1H-pyrrol-2-yl)(4-phenylpiperazin-1-yl)methanone] | > 5 | 1 to 3
11 | Cc1c(CN2CCN(c3ncccc3Cl)CC2)cc(C(=O)N2CCN(c3cccc(Cl)c3)CC2)n1C [Example I-98, 1-({5-[4-(3-Chlorophenyl)piperazine-1-carbonyl]-1,2-dimethyl-1H-pyrrol-3-yl}methyl)-4-(3-chloropyridin-2-yl)piperazine] | > 3 | 0.01 to 1
12 | Cc1c(CN2CCN(c3ncccc3Cl)CC2)cc(C(=O)N2CCN(c3cccc(C#N)c3)C[C@@H]2C)n1C [Example I-99, (S)-3-(4-(4-((4-(3-chloropyridin-2-yl)piperazin-1-yl)methyl)-1,5-dimethyl-1H-pyrrole-2-carbonyl)-3-methylpiperazin-1-yl)benzonitrile] | > 3 | 0.01 to 1
13 | Cc1c(CN2CCN(c3ccccc3Cl)CC2)cc(C(=O)N2CCN(c3ccccc3C#N)C[C@@H]2C)n1C [Example I-100] | > 10 | 0.01 to 1
14 | C[C@H]1CN(c2cccc(F)c2C#N)CCN1C(=O)c1cc(CN2CCN(c3ccccc3Cl)CC2)cn1C [Example I-101, (S)-2-(4-(4-((4-(2-chlorophenyl)piperazin-1-yl)methyl)-1-methyl-1H-pyrrole-2-carbonyl)-3-methylpiperazin-1-yl)-6-fluorobenzonitrile] | > 5 | 0.01 to 1
15 | Cc1c(CN2CCN(c3ccccc3Cl)CC2)cc(C(=O)N2CCN(c3cccc(F)c3C#N)C[C@@H]2C)n1C [Example I-102, (S)-2-(4-(4-((4-(2-chlorophenyl)piperazin-1-yl)methyl)-1,5-dimethyl-1H-pyrrole-2-carbonyl)-3-methylpiperazin-1-yl)-6-fluorobenzonitrile] | > 10 | 0.01 to 1
16 | C[C@@H]1CN(Cc2cc(C(=O)N3CCN(c4ccc(F)cc4)CC3)n(C)c2)CCN1c1ccccc1Cl [Example I-103] | > 10 | 1 to 3
17 | Cc1c(CN2CCN(c3ccccc3Cl)CC2)cc(C(=O)N2CCN(c3cccc(N=[N+]=[N-])c3)C[C@@H]2C)n1C [Example I-104, (S)-(4-(3-azidophenyl)-2-methylpiperazin-1-yl)(4-((4-(2-chlorophenyl)piperazin-1-yl)methyl)-1,5-dimethyl-1H-pyrrol-2-yl)methanone] | > 5 | 1 to 3
18 | Cc1c(CN2CCN(c3ccccc3Cl)CC2)cc(C(=O)N2CCN(c3ccc(F)c(C#N)c3)CC2)n1C [Example I-105, 5-(4-(4-((4-(2-Chlorophenyl)piperazin-1-yl)methyl)-1,5-dimethyl-1H-pyrrole-2-carbonyl)piperazin-1-yl)-2-fluorobenzonitrile] | > 3 | 0.01 to 1
19 | CC(c1cc(C(=O)N2CCN(c3ccccc3)CC2)n(C)c1)N1CCN(c2ccccc2Cl)CC1 (stereo not drawn) [Example I-106, 1-(2-Chlorophenyl)-4-{1-[1-methyl-5-(4-phenylpiperazine-1-carbonyl)-1H-pyrrol-3-yl]ethyl}piperazine] | > 3 | 1 to 3
20 | Cc1c(CN2CCN(c3ccccc3Cl)CC2)cc(C(=O)N2CCN(c3cccc(F)c3C#N)CC2)n1C [Example I-107, 2-(4-(4-((4-(2-chlorophenyl)piperazin-1-yl)methyl)-1,5-dimethyl-1H-pyrrole-2-carbonyl)piperazin-1-yl)-6-fluorobenzonitrile] | > 3 | 0.01 to 1
21 | Cc1c(CN2CCN(c3ccccc3Cl)CC2)cc(C(=O)N2CCN(c3cccc(F)c3)CC2)n1C [Example I-108, (4-((4-(2-Chlorophenyl)piperazin-1-yl)methyl)-1,5-dimethyl-1H-pyrrol-2-yl)(4-(3-fluorophenyl)piperazin-1-yl)methanone] | > 1 | 0.01 to 1

From patent publication US20190389843A1, “PYRROLE mTORC INHIBITORS AND USES THEREOF” (Navitor Pharmaceuticals, Inc., priority 2016, published 2019)
